Assay results published in ChEMBL document CHEMBL3301361, “Experimental in vitro DMPK and physicochemical data on a set of publicly disclosed compounds”.

Experiments:
physchem = conditions: octan-1-ol/water
in vitro = conditions: human

| logD (physchem; pH 7.4, LogD7.4) | microsomal CLint (in vitro; liver microsomes) [µL/min/mg] | microsomal CLint (in vitro; microsomes) [µL/min/mg] | SMILES | logD (physchem; pH 7.4) |
| --- | --- | --- | --- | --- |
| 0.52 | < 3 |  | Cc1ccc2c(c1)c(-c1ccnc3c(C#N)cccc13)c(C)n2CC(=O)O |  |
| 2.87 | < 3 |  | Cc1c(Sc2ccc(Cl)cc2)c2cc(Cl)ccc2n1CC(=O)O |  |
| 2.86 | < 3 |  | NS(=O)(=O)c1ccc(Nc2nccc(-c3ccccc3)n2)cc1 |  |
| 0.79 |  | < 3 | Cc1c(Sc2ccc(Cl)cc2)c2ccc(S(C)(=O)=O)cc2n1CC(=O)O |  |
| 2.84 | 33 |  | O=C(O)c1cccc(-c2ccc3c(C(=O)NCC45CC6CC(CC(C6)C4)C5)c(Cl)ccc3n2)c1 |  |
| 2.75 | < 3 |  | C[C@H](CO)Nc1nc(SCc2ccccc2)nc2[nH]c(=O)[nH]c12 |  |
| 1.26 |  | 8.5 | O=C(NCC1CCCCC1)c1cc(-n2ncc(=O)[nH]c2=O)ccc1Cl |  |
| 1.94 |  | < 3 | Nc1c(C(=O)c2cccc(OC[C@H](O)CO)c2)cnn1-c1ccc(F)cc1 |  |
| 2.08 | 41 |  | COc1ccc(-c2ccnc(N)n2)cc1 |  |
| 1.19 |  | 41 | NC1CCN(c2nccc(C(=O)NCC34CC5CC(CC(C5)C3)C4)c2Cl)CC1 |  |
| 3.83 |  | 116 | CSc1nc(-c2ccccc2)nn1Cc1ccccc1 |  |
| 2.14 |  | < 3 | O=C(O)[C@@H](c1ccccc1)N1CCC(CN2CCC(Oc3ccc(Cl)c(Cl)c3)CC2)CC1 |  |
| 0.15 |  | 22 | COc1ccccc1CNCc1ccc(CCNC[C@H](O)c2ccc(O)c3[nH]c(=O)sc23)cc1 |  |
| 0.64 | 6 |  | CN(C)CCCOc1ccc(-c2cc(C(N)=O)c(NC(N)=O)s2)cc1 |  |
| 3.48 |  | 34.7 | Cc1cc2c(C(=O)NC[C@H](C)c3ccccc3)c(O)c(O)cc2c(O)c1-c1c(C)cc2c(C(=O)NC[C@H](C)c3ccccc3)c(O)c(O)cc2c1O [1,1',6,6',7,7'-HEXAHYDROXY-3,3'-DIMETHYL-N5-((R)-2-PHENYLPROPYL)-N5'-((R)-2-PHENYLPROPYL)-2,2'-BINAPHTHYL-5,5'-DICARBOXAMIDE (ATROPISOMERIC MIX)] |  |
| 1.73 |  | 3 | Cc1nc(CSc2nc(N[C@H](C)CO)c3sc(N)nc3n2)cs1 |  |
| 3.02 |  | < 3 | Cc1cc(Cl)ccc1OC1CCN(C[C@H](O)CNC(=O)c2c[nH]nc2C(F)(F)F)CC1 |  |
| 3.01 | 45 |  | N#Cc1ccc(Nc2nccc(NC3CC3)n2)cc1 |  |
| 3.69 |  | 11 | Nc1nc(NCc2ccccc2)nc2c1nc(O)n2Cc1ccccc1 |  |
| 3.38 | 19 |  | COc1ccc(C=NN=Cc2ccc(OC)c(OC)c2)cc1OC |  |
| 2.93 | 79.5 |  | O=C(CC12CC3CC(CC(C3)C1)C2)Nc1c(Cl)ccc2nc(CN3CCN(CCO)CC3)ccc12 |  |
| 3.56 | 38 |  | CC1CCC(CC(=O)Nc2cccc3ncccc23)CC1 (configuration not stated) |  |
| 1.86 | 42.7 |  | COCCNCc1ccc(Nc2ncc3cc(-c4ccncc4)ccc3n2)cc1 |  |
| 3.53 | 30.5 |  | CC(NCC(O)c1ccc([N+](=O)[O-])cc1)C12CC3CC(CC(C3)C1)C2 (configuration not stated) |  |
| 1.18 | 33 |  | Cc1ccc2nc(CCNCCCO)ccc2c1NC(=O)CC12CC3CC(CC(C3)C1)C2 |  |
| 3 | 16 |  | CCN(C(=O)Cc1ccc(S(C)(=O)=O)cc1)C1CCN(CCC(c2ccccc2)c2ccccc2)CC1 |  |
| 4.17 |  | 6 | CCCCc1nc2c(N)nc3ccccc3c2n1Cc1ccccc1 |  |

| logD (physchem; pH 7.4, LogD7.4) | microsomal CLint (in vitro; liver microsomes) [µL/min/mg] | microsomal CLint (in vitro; microsomes) [µL/min/mg] | SMILES | logD (physchem; pH 7.4) |
| --- | --- | --- | --- | --- |
| 1.79 | 6 |  | Cc1ccc(S(=O)(=O)NC(=O)N2CCC(N3CCC(Oc4ccc(Cl)cc4C)CC3)CC2)cc1 |  |
| 2.42 |  | 21 | NC(=O)Nc1sc(-c2ccccc2)cc1C(N)=O |  |
| 0.94 | 8 |  | CC1CN(C(=O)c2cc3ccccc3[nH]2)CCN1 (configuration not stated) |  |
| 1.06 | 20 |  | O=c1[nH]c2c(O)ccc([C@@H](O)CNCCCSCCNCCc3cccc(Cl)c3)c2s1 |  |
| 4.1 | 13 |  | CCN(C(=O)Cc1ccc([N+](=O)[O-])cc1)C1CCN(CCC(c2ccccc2)c2ccccc2)CC1 |  |
| 3.91 |  | < 3 | O=C(NC[C@@H](O)CN1CCC(Oc2ccc(Cl)c(Cl)c2)CC1)c1c[nH]c2ccccc12 |  |
| 2.6 | < 3 |  | O=C(O)C(c1ccccc1)N1CCCC(CN2CCC(Oc3ccc(Cl)c(Cl)c3)CC2)C1 (configuration not stated) |  |
| 3.27 |  | 13 | c1cn(-c2ccc(Oc3nccc(Oc4ccc5c(c4)OCO5)n3)cc2)cn1 |  |
| 0.87 | 3 |  | COCCNCc1ccc(-c2cc(C(N)=O)c(NC(N)=O)s2)cc1 |  |
| 0.05 | 3 |  | Cc1ccc2c(c1)c([S+]([O-])c1ccc(Cl)cc1)c(C)n2CC(=O)O (configuration not stated) |  |
| 2.95 | < 3 |  | O=C(NC[C@@H](O)CN1CCC(Oc2ccc(Cl)c(Cl)c2)CC1)c1n[nH]c2ccccc12 |  |
| 3.74 |  | 50.5 | COc1ccc(C(=O)NCCN2CCN(Cc3ccc(Cl)c(Cl)c3)CC2)cc1Cl |  |
| 2.79 | 20.5 |  | CN1CCN(C(=O)c2cc3cc(Br)ccc3[nH]2)CC1 |  |
| 2.6 | < 3 |  | Cc1ccc(C(=O)Nc2ccon2)cc1NC(=O)c1cnn(-c2ccccc2F)c1N |  |
| 0.91 | < 3 |  | N#Cc1cc(Cl)ccc1O[C@H](CCN)c1ccccc1 |  |
| 3.1 | 10 |  | C=CCN(C(=O)Cc1ccc(S(C)(=O)=O)cc1)C1CCN(CCC(c2ccccc2)c2ccccc2)CC1 |  |
| 2.71 | 112 |  | Nc1nccc(-n2ccc3ccccc32)n1 |  |
| 2.71 | 30 |  | O=C(CCc1ccccc1O)Nc1ccccc1 |  |
| 0.74 | 4 |  | N=C(N)c1cc2c(I)cccc2s1 |  |
| 2.13 | < 3 |  | O=C(NS(=O)(=O)Cc1ccccc1)N1CCC(N2CCC(Oc3ccc(Cl)c(Cl)c3)CC2)CC1 |  |
| 2.62 | 6 |  | O=C(NS(=O)(=O)c1cccc(Cl)c1)N1CCC(N2CCC(Oc3ccc(Cl)c(Cl)c3)CC2)CC1 |  |
| 0.86 | 68 |  | CCc1ccc(CCNCCCSCCNC[C@H](O)c2ccc(O)c3[nH]c(=O)sc23)cc1 |  |
| 2.6 | 54 |  | CCCN1CCC(Oc2nccc(Nc3cc(NC(=O)c4cccc(N5CCOCC5)c4)ccc3C)n2)CC1 |  |
| 1.74 | 35 |  | O=c1[nH]c2c(O)ccc([C@@H](O)CNCCCSCCNCCc3cccc(Cl)c3Cl)c2s1 |  |
| 3.69 | 3 |  | O=C(NC[C@@H](O)CN1CCC(Oc2ccc(Cl)c(Cl)c2)CC1)c1n[nH]c(=O)c2ccccc12 |  |
| 3.84 | 75 |  | CC1(C)[C@@H]2CC[C@@]1(CS(=O)(=O)NC1CCN(c3ccc(C(F)(F)F)cn3)CC1)C(=O)C2 |  |
| 4.31 |  | 35 | C(#Cc1n[nH]c2ccccc12)c1ccccc1 |  |

| SMILES | logD (physchem; pH 7.4, LogD7.4) | microsomal CLint (in vitro; liver microsomes) [µL/min/mg] | microsomal CLint (in vitro; microsomes) [µL/min/mg] | logD (physchem; pH 7.4) |
| --- | --- | --- | --- | --- |
| Cc1ccc2c(c1)C1(CCN(CCc3nc(-c4ccccc4)oc3C)CC1)OC(=O)N2 |  | 79.4 |  | 4.2 |
| C[C@H]1CN(Cc2cc(Cl)ccc2OC(C)(C)C(=O)O)CCN1S(=O)(=O)c1ccccc1 | 0.54 |  | < 3 |  |
